Molecular target: T1, GSK-3β (Homo sapiens, UniProt P49841)
T1 construct: gene GSK3B
Experiment: Kinase-Glo luminescent kinase assay, recombinant human GSK-3β, dose-response
Assay type: biochemical

T1 sequence (P49841 whole entry): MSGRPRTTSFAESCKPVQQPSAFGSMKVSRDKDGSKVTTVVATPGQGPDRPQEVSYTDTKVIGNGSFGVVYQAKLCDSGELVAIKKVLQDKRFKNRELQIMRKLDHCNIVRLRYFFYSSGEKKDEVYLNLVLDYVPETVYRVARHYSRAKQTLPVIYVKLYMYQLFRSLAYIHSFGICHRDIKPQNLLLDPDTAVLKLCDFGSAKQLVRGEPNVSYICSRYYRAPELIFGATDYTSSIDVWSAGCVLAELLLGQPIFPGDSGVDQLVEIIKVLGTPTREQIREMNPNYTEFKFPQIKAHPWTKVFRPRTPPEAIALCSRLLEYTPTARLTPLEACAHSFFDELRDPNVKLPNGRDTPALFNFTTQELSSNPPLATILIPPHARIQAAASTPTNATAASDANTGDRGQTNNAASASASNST

| IC50 | SMILES |
| --- | --- |
| 16.1 ± 0.6 µM | COc1cc(O)c2c(c1CC=C(C)C)O[C@H](c1ccccc1)CC2=O [FLA, (S)-5-hidroxy-7-methoxy-8-(3-methylbut-2-en-1-yl)-2-phenylcroman-4-one] |
| 44.8 ± 4 µM | CC(C)=CCc1c(O)cc(O)c2c1O[C@H](c1ccccc1)CC2=O [glabranin, (S)-5,7-dihydroxy-8-(3-methylbut-2-en-1-yl)-2-phenylchroman-4-one] |

— paper PMC11857971, “^11C-Labeling of a Flavanone Extracted from a South American Native Species for Evaluation of Its Interaction with GSK-3β” (Molecules, 2025)
